Laboratory results taken from publication PMC3955162 (Nature neuroscience, 2013).
Numbering of substitutions follows the chain as printed.

Legend:
ACR-23 [1] = target: T1, ACR-23 (Caenorhabditis elegans, UniProt G5EG88); experiment: two-electrode voltage clamp in Xenopus oocytes; format: cell-based
T1 sequence (G5EG88 20-545): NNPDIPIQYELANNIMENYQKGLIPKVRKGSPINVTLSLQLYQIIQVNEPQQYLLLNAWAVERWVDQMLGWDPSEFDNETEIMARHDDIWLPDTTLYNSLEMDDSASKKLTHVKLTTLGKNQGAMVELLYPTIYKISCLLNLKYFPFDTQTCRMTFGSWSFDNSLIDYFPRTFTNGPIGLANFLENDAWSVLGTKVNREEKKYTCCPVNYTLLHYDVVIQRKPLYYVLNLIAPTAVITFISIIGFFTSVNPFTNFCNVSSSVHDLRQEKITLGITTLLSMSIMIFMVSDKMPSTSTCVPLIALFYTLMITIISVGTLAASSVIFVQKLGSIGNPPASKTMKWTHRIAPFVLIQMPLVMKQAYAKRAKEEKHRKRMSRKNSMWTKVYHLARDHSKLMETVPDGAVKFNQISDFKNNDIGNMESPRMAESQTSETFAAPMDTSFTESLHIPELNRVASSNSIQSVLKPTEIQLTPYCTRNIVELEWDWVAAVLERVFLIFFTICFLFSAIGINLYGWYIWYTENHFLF

ACR-23 [2] = target: T1, ACR-23; experiment: two-electrode voltage clamp in Xenopus oocytes expressing ACR-23; format: cell-based
ACR-23(I301N) = target: T2, ACR-23(I301N) (Caenorhabditis elegans, UniProt G5EG88, I301N); experiment: as above; format: cell-based
T2 sequence (G5EG88 20-545 I301N): T1 sequence (G5EG88 20-545) with I282N

[3] = substrate: C[N+](C)(C)CC(=O)O; experiment: cells, lysate or membranes; details: Na+ and Cl−

## C[C@](C#N)(COc1cc(C#N)ccc1C(F)(F)F)NC(=O)c1ccc(SC(F)(F)F)cc1 [monepantel]
ACR-23 [1]
  two-electrode voltage clamp in Xenopus oocytes; potentiation of 1 mM betaine cur: 300 pM

## C[N+](C)(C)CC(=O)O [betaine, N, N, N-trimethylglycine]
ACR-23 [2]
  EC50: 1400 µM
ACR-23(I301N)
  EC50: 166 µM

B1: SNF-3 (Caenorhabditis elegans) (protein)
chain: MGTSEHVPLPTDEAKAKELEQSQHSEEPDRGQWTGKFDFLMSMVAYAVGLGNVWRFPYLCYKNGGGSFLVVYMIFFCLAAVPIFLMEVTVGQYLQKGAMEMWLMCPLFRGVGIGNVVIAFMCIAYFCVIVAWAMFYMISSIAWVFPWETCNNYWNDATCVTGKENFTELARIKALVASAGGHTQTSVEQFWEKRVLHDTGDISEFGGIQWELFFIMAAAWLIVYFALWKGITQARKFVYFCALFPYVLIFILLIRGLTLEGAGTGIYFYLKPNATRLLDTAVWKDAGTQVFYSYGVGFGALIALGSHNKFNHNCFKDAITMCFINGCTSITAGFAVFSILGYMSHVAQKDISEIVKPGVGLAFLAYPEVASNLPMKQVFAVLFFLMITILGLDSQVCMMEGLFTALEDAFPILRKYKKQSLGIFCLFFFCIGIPMVTHSGSHWLTLFDAYGASGYALLFVVFFEVVGLAYGFGAHNIRKALHEMIGVTLPKGIEYVWKFCAPATSLVLFVFCVVYYHPVKYPDGKDFPFWANAFGWFLSSCSMVVIPGYAIYYLFFTNKHLTLKERVRKGLNLDGSFESPAKKNLVNNAEELKFIESSSQ
[3]
  Km: 320 ± 50 µM
